{"source": "patent US20010053351A1", "about": "“Inhibition of GSK-3 beta” (priority 1999, published 2001)", "key": {"GSK-3": {"system": "GSK-3", "settings": "cited from earlier work"}, "GSK-3α": {"molecular_target": "GSK-3α (Homo sapiens, UniProt P49840)", "sequence (P49840 whole entry, species assumed)": "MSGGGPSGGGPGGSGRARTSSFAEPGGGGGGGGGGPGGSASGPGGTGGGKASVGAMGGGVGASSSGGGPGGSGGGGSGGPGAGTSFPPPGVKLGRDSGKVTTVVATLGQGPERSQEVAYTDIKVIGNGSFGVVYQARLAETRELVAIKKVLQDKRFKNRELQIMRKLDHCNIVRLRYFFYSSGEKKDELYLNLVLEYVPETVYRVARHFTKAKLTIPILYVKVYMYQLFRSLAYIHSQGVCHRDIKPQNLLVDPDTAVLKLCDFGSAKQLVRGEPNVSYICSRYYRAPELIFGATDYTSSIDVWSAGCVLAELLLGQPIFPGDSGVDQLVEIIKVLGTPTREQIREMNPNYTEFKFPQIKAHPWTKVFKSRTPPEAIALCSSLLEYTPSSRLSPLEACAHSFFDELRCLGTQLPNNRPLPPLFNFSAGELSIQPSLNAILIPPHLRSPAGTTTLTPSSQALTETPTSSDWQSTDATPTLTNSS", "settings": "significant effects at concentrations of VPA similar to those attained clinically; cited from earlier work"}, "GSK-3β": {"molecular_target": "GSK-3β (Homo sapiens, UniProt P49841)", "sequence (P49841 whole entry)": "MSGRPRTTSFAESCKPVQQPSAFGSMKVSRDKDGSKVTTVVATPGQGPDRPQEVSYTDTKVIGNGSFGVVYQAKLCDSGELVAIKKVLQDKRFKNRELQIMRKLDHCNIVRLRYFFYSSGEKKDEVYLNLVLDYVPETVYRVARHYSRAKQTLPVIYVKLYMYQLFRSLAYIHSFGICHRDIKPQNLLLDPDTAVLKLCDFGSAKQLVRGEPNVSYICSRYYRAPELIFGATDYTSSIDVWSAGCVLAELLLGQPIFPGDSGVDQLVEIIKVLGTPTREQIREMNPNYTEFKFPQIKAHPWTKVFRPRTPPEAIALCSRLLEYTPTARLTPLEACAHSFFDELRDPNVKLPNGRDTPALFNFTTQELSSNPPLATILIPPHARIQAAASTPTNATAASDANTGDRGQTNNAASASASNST", "settings": "significant effects at concentrations of VPA similar to those attained clinically; cited from earlier work"}, "GSK-3β−/− cells": {"system": "GSK-3β−/− cells", "test": "Cell death / viability (trypan blue) of GSK-3β-/- embryonic fibroblast cell lines", "assay_type": "cell-based, mouse", "settings": "anisomycin 0-5 μg/ml, sorbitol 0-1000 mM, daunorubicin 0-1000 ng/ml", "description": "To probe the mechanism by which GSK-3β impacted TNF cytotoxicity, immortalized mouse embryonic fibroblast (MEF) cell lines from two wild-type ([…]), two GSK-3β heterozygous (+/−1 and +/−2) and two GSK-3β homozygous mutant (−/−1 and −/−2) embryos were derived from embryos.\nWe next examined the sensitivity of the lines to TNF-induced cell death. […] As a reference, TNF receptor-associated factor 2 (TRAF2) homozygous mutant MEFs were used in the same assay.\nViability is expressed normalized to untreated controls. Independently derived GSK-3β^+/+ EF cell clones are indicated by +/+1 and +/+2; GSK-3β^+/− by +/−1 and +/−2; and GSK-3β^−/− by −/−1, and −/−2. […] Cells were uniformly treated with cycloheximide (CHX, 0.25 μg/ml). […] (C) Sensitivity of GSK-3β^−/− EF cells to various apoptotic stimuli. EF cells were stimulated with anisomycin (0-5 μg/ml), sorbitol (0-1000 mM), daunorubicin (0-1000 ng/ml), and γ-irradiation (0-50 Gy). All experiments were repeated at least three times, and the data (as a percentage) is shown as the mean ± standard error."}}}
{"molecule": "CC(C)NCC(O)c1ccc(O)c(O)c1", "note": "(stereo not shown) [Isoproterenol]", "values": [{"measurement": "decrease of GSK-3 activity", "setting": "GSK-3", "value": "approximately 50%"}]}
{"molecule": "CCCC(CCC)C(=O)O", "note": "[VPA, Valproic acid]", "values": [{"measurement": "inhibition of GSK-3α", "setting": "GSK-3α", "value": "inhibits"}, {"measurement": "inhibition of GSK-3β", "setting": "GSK-3β", "value": "inhibits"}]}
{"molecule": "COc1ccc(C[C@H]2NC[C@H](O)[C@H]2OC(C)=O)cc1", "note": "[anisomycin]", "values": [{"measurement": "susceptibility of GSK-3β-deficient cells to apoptotic stimuli", "setting": "GSK-3β−/− cells", "value": "normal susceptibility"}]}
{"molecule": "COc1cccc2c1C(=O)c1c(O)c3c(c(O)c1C2=O)C[C@@](O)(C(C)=O)C[C@@H]3O[C@H]1C[C@H](N)[C@H](O)[C@H](C)O1", "note": "[daunorubicin]", "values": [{"measurement": "susceptibility of GSK-3β-deficient cells to apoptotic stimuli", "setting": "GSK-3β−/− cells", "value": "normal susceptibility"}]}
{"molecule": "OC[C@@H](O)[C@@H](O)[C@H](O)[C@@H](O)CO", "note": "[sorbitol]", "values": [{"measurement": "susceptibility of GSK-3β-deficient cells to apoptotic stimuli", "setting": "GSK-3β−/− cells", "value": "normal susceptibility"}]}
{"molecule": "insulin", "values": [{"measurement": "decrease of GSK-3 activity", "setting": "GSK-3", "value": "approximately 50%"}]}
